These results are taken from ChEMBL document CHEMBL1140311, “Design and synthesis of new nonsteroidal glucocorticoid modulators through application of an "agreement docking" method” (J Med Chem, 2005).

Each structure is given as a SMILES string.

The nature of test [1]: Binding affinity for glucocorticoid receptor.
Test [2] addresses T1, Glucocorticoid receptor (Homo sapiens) (UniProt P04150).
T1 sequence (whole entry): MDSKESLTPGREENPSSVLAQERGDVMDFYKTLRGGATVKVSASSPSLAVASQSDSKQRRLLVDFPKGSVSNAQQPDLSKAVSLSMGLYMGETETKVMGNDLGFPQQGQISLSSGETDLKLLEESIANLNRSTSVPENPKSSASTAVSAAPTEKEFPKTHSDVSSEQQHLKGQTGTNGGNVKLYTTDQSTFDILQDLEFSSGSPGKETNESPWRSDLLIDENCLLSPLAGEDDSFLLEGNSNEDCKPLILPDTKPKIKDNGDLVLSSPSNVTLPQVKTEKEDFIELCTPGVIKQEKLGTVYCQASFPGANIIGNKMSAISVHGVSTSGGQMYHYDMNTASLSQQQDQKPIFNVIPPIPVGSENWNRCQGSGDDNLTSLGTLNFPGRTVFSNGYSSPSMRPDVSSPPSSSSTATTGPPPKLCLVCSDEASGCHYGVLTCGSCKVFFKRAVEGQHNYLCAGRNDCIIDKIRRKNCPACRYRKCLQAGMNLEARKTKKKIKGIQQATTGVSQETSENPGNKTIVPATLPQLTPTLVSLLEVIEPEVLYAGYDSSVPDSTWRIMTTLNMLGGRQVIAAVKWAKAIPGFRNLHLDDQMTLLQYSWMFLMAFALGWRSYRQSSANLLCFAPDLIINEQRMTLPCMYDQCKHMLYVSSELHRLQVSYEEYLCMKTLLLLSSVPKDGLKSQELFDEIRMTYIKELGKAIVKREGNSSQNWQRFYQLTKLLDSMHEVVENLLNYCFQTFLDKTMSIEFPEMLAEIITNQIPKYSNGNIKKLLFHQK
The test can be described thus: Glucocorticoid receptor mediated transrepression of NFkB reporter gene in human A549 lung epithelial cells at 10 uM. It is filed as functional, cell-based. Background: A reporter such as luciferase makes a cellular process visible.

Test [3] has as its target T2, Glucocorticoid receptor (Homo sapiens, UniProt P04150).
T2 sequence (P04150 whole entry): T1 sequence (whole entry)
Kind of test: Antagonist activity for Glucocorticoid receptor in MMTV transactivation assay in human A549 lung epithelial cells at 10 uM. It is filed as functional, cell-based.

Test [4] concerns the target T2, Glucocorticoid receptor. Kind of test: Glucocorticoid receptor mediated transrepression of NFkB reporter gene in human A549 lung epithelial cells. It is filed as functional, cell-based.

One may read the IC50 as the concentration at which inhibition is half-maximal. A higher IC50 goes with weaker potency in that assay. As for `Cc1noc(=O)c2ccc(NC(=O)C(O)(CC3CCc4ccccc43)C(F)(F)F)cc12` (configuration not stated), the “Log IC50” value in test [1] is -7.81. This compound showed a Max inhibition in test [2] of 73%. Besides, on Glucocorticoid receptor [3], the IC50 was 4790 nM.

As for `Cc1noc(=O)c2ccc(NC(=O)C(O)(CC3CCCc4ccccc43)C(F)(F)F)cc12` (stereo in doubt; 9d (D2E2)) [listing 1 of 2 here], the “Log IC50” value in test [1] is given as -7.15. The compound further had an IC50 against Glucocorticoid receptor [3] of 3890 nM.

`Cc1noc(=O)c2ccc(NC(=O)C(O)(CC3CCCc4ccccc43)C(F)(F)F)cc12` (stereo in doubt; 9d (D2E2)) [listing 2 of 2 here]: in test [2], the Max inhibition was 23%.

`Cc1noc(=O)c2ccc(NC(=O)C(O)(CC3CCCc4ccccc43)C(F)(F)F)cc12` (stereo in doubt; 9e (D1E1)) [listing 1 of 2 here]: in test [1], the “Log IC50” value is -8.08. In addition, on Glucocorticoid receptor [3], half-maximal inhibition (IC50) required 562 nM.

Take `Cc1noc(=O)c2ccc(NC(=O)C(O)(CC3CCCc4ccccc43)C(F)(F)F)cc12` (stereo in doubt; 9e (D1E1)) [listing 2 of 2 here]: in test [2], the Max inhibition came to 51%.

On to `Cc1noc(=O)c2ccc(NC(=O)C(O)(CC3CCCCc4ccccc43)C(F)(F)F)cc12` (stereo in doubt; 15a (D1E2)) [listing 1 of 2 here], for which the “Log IC50” value in test [1] is -8.57. For the same compound, the IC50 at Glucocorticoid receptor [4] was 145 nM; at Glucocorticoid receptor [3], 708 nM.

The compound `Cc1noc(=O)c2ccc(NC(=O)C(O)(CC3CCCCc4ccccc43)C(F)(F)F)cc12` (stereo in doubt; 15a (D1E2)) [listing 2 of 2 here] displayed a Max inhibition in test [2] of 60%.

As for `Cc1noc(=O)c2ccc(NC(=O)C(O)(CC3CCCCc4ccccc43)C(F)(F)F)cc12` (stereo in doubt; 15b (D2E1)) [listing 1 of 2 here], the “Log IC50” value in test [1] is listed as -7.75. Further, the IC50 against Glucocorticoid receptor [3] was 1000 nM.

Consider `Cc1noc(=O)c2ccc(NC(=O)C(O)(CC3CCCCc4ccccc43)C(F)(F)F)cc12` (stereo in doubt; 15b (D2E1)) [listing 2 of 2 here], for which, in test [2], the Max inhibition turned out to be 24%.

As to `C[C@@H]1C[C@H]2[C@@H]3CCC4=CC(=O)C=C[C@]4(C)[C@@]3(F)[C@@H](O)C[C@]2(C)[C@@]1(O)C(=O)CO` [DEXAMETHASONE], in test [1], the “Log IC50” value is listed as -8.1.
